# Reference: PMC8184781, “A histone H3K4me1-specific binding protein is required for siRNA accumulation and DNA methylation at a subset of loci targeted by RNA-directed DNA methylation” (Nature Communications, 2021)
# Tests used:
# [1] = target: T1, RDM15 Tudor domain (Arabidopsis thaliana, UniProt Q8GUP3); experiment: Histone peptide array (MODified Histone Peptide Array), GST-fused RDM15; format: binding; settings: several hundred combinations of histone marks
# T1 construct: hexahistidine-yeast Sumo (cleaved yes); made in house; host or cells: E. coli BL21(DE3)
# T1 sequence (Q8GUP3 599-663): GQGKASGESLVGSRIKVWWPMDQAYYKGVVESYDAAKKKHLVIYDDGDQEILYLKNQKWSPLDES
# Experimental: Histone peptide array assay was performed using the MODified Histone Peptide Array kit (Active Motif) according to the manufacturer’s instructions. In brief, the slide was first blocked for 2 h at room temperature. After it was washed three times with TBST buffer [10 mM Tris·HCl (pH 7.5), 30 mM NaCl, and 0.05% Tween-20], the slide was incubated overnight with […] of GST-fused purified RDM15 protein at 4 °C in […] of binding buffer [50 mM Hepes (pH 8.0), 150 mM NaCl, 2 mM DTT, and 0.05% Nonidet P-40]. After it was washed three additional times with TBST buffer, the slide was incubated with anti-GST primary antibody at 1/3000 dilution and secondary antibody at 1/5000 dilution in TBST buffer for 1 h at room temperature, respectively. After the washing, the slide was visualized using Lumi-light ECL substrate (Roche). The intensity of the blotted slide was analyzed according to the instructions of the analysis software of the MODified Histone Peptide Array.
# [2] = tested on: mutated RDM15 (W616A/Y623A/D643A/D645A); experiment: Co-immunoprecipitation of H3K4me1 with mutated RDM15, western blot; format: binding, Arabidopsis; settings: mutated RDM15-3xMYC/rdm15-3 plants, anti-MYC IP
# Text: We expressed the mutated RDM15 (W616A/Y623A/D643A/D645A) incapable of binding to H3K4me1 in rdm15-3 mutant plants, generating mutated RDM15-3xMYC/rdm15-3 plants.
# (§1) H3K4me1 mark. a. Histone peptide array assay showing the binding preference of RDM15 to H3K4me1. Error bar represents s.d. (n=3 independent experiments). Data are presented as mean values +/- SD and the dots are the corresponding data points. b. ITC binding curves between the RDM15 tudor domain and H3K4me1 and H4K20me1 peptides indicate that H3K4me1 is the optimal binding partner for […]
# (§2) The RDM15-3xFLAG/rdm15-3 and mutated
# (§3) RDM15-3xMYC/rdm15-3 plants were used to perform protein immunoprecipitation with anti-FLAG and anti-MYC antibodies, respectively, and then anti-H3K4me1 antibody was used to detect H3K4me1 . d. Methylation specific PCR results showing the methylation levels at several RDM15 -dependent RdDM loci. McrBC, an enzyme cleaving methylated DNA, was used to digest genomic DNA from different pla nts with two biological replicates. Stronger PCR signal represent s lower methylation level. RDM15-3xFLAG rescued the hypomethylation phenotype in rdm15-3, however, the Mutated RDM15-3xMYC didn’t rescue the methylation phenotype .
# We thank the reviewer for their comments. […]
# (§4) Moreover, the H3K4me1 mark has been previously detected by ChIP-seq at whole-genome level in a previous study (Inagaki et al., EMBO J., 2017). […]
# [3] = tested on: RDM15; experiment: Co-immunoprecipitation of H3K4me1 with wild-type RDM15, western blot; format: binding, Arabidopsis; settings: wild-type RDM15 (RDM15-3xFLAG/rdm15-3 plants), anti-FLAG IP
# Text: as §1, §2, §3
# We thank the reviewer for their comments. We will response the comments in the following with our response highlighted in red.
# The authors have fully addressed my concerns.I think this paper meets the standard of a Nature […]
# as §4
# [4] = target: T1, RDM15 Tudor domain; experiment: Isothermal titration calorimetry (ITC), RDM15 Tudor domain (WT); format: binding; settings: compared with H3K4me0, H3K4me2 and H3K4me3
# Experimental: ITC binding was measured using a Microcal PEAQ-ITC instrument (Malvern). The purified proteins were dialyzed against a buffer containing 100 mM NaCl, 20 mM HEPES, pH 7.0, and 2 mM β-mercaptoethanol and were diluted to a concentration of about 0.8–0.12 mM. The peptide was dissolved in the same buffer with a concentration of about 1.0–1.5 mM. All of the titrations were performed at 20 °C. The data were analyzed using the Origin 7.0 program.
smiles,measurement,setting,value
CNCCCC[C@H](NC(=O)[C@@H](NC(=O)[C@H](CCCNC(=N)N)NC(=O)[C@H](C)N)[C@@H](C)O)C(=O)N[C@@H](CCC(N)=O)C(=O)N[C@H](C(=O)N[C@@H](C)C(=O)N[C@@H](CCCNC(=N)N)C(=O)N[C@@H](CCCCN)C(=O)N[C@@H](CO)C(=O)N[C@H](C(=O)NCC(=O)NCC(=O)N[C@@H](CCCCN)C(=O)N[C@@H](C)C(=O)O)[C@@H](C)O)[C@@H](C)O [H3K4me1],Binding in words (histone peptide array),[1],significant binding
same,Co-immunoprecipitation of H3K4me1,[2],not by mutated RDM15
same,Co-immunoprecipitation of H3K4me1,[3],co-immunoprecipitated by wild-type RDM15
same,Binding in words (ITC),[4],bound much more strongly to the monomethylation state of H3K4
